“Also recorded” adds a separate entry of the source.
Tests used:
[1] = in vivo, po
[2] = Study of driving performance after gaboxadol administration (Example 3); type: in vivo, human (healthy male and female subjects); details: for effect on memory test, body sway, DSST or critical tracking: cognitive and psychomotor test battery before the driving test
Description: The study participants included healthy, male and female subjects between 21 and 45 years of age, with a valid drivers license for at least 3 years.
Following a cognitive and psychomotor test battery, the driving test started at 9 am and lasted for one hour.

[3] = Study of daytime performance after sleep restriction (Example 4); type: in vivo, human (healthy adults)
Protocol: The study included a 2-night single-blind placebo run-in period, a 4-night double-blind treatment period during which sleep was restricted to 5 hours and a 2-night single-blind placebo run-out period. The study included healthy male and female volunteers 18 to <55 years of age.
2-night run-in period: All patients received placebo
2-night run-out period: All patients received placebo
The primary endpoints included observations based on the Multiple Sleep Latency Test (MSLT) and Slow Wave Sleep (SWS) assessment.

[4] = three-month efficacy study, insomnia; cited from earlier work
[5] = 111 individuals with depression; cited from earlier work

In the case of CCN(CC)CCN1C(=O)CN=C(c2ccccc2F)c2cc(Cl)ccc21 [Flurazepam], the “residual effect on primary endpoints Choice Reaction Time and Critical Flicker Fusion” value [1] is reported as “showed significant effect”.
With Oc1noc2c1CCNC2 [gaboxadol, 4,5,6,7-tetrahydroisoxazolo [5,4-c]pyridine-3-ol] the tolerability ([2]; both the evening and the middle-of-the-night dose, 15 mg) was “well tolerated”, the “effect on memory test, body sway, DSST or critical tracking” value [2] was “no effect” and the “daytime performance, effect sizes for the neurocognitive battery” value ([3]; gaboxadol 15 mg versus placebo) was “no strong evidence that gaboxadol improves daytime performance”. The “subjective daytime sleepiness versus placebo” value ([3]; gaboxadol 15 mg, Sleep Restriction period) was “trend towards less subjective daytime sleepiness”, the “amount of slow wave sleep (SWS) versus placebo” value ([3]; gaboxadol 15 mg, Sleep Restriction period, p<0.001, 1 sided) was “significantly more SWS; also recorded: increases the amount of slow wave sleep” and the “daytime sleepiness (MSLT) versus placebo” value ([3]; gaboxadol 15 mg, Sleep Restriction period, p=0.047, 1 sided) was “significantly less daytime sleepiness; also recorded: protective effect on reducing daytime sleepiness”. The “MSLT, average difference versus placebo (longer)” value ([3]; gaboxadol 15 mg, last two Sleep Restriction days) was 2.01 min, the “Karolinska Sleepiness Score (KSS), average difference versus placebo (less)” value ([3]; gaboxadol 15 mg, last two Sleep Restriction days, LDA model, p=0.058, 1 sided) was 0.68 and the “SWS, average difference versus placebo (longer)” value ([3]; gaboxadol 15 mg, last two Sleep Restriction nights) was 20.53 min. For the same compound, the “residual effect on primary endpoints Choice Reaction Time and Critical Flicker Fusion” value [1] was “did not show residual effect”, the “residual effects on other measurements (MSLT, DSST, Tracking, Memory tests, Body Sway, Leeds Sleep Evaluation Questionnaire)” value [1] was “did not show any signs of residual effects” and the “effects in sleep onset and sleep maintenance” value [4] was “failed to show significant effects”.
For OC(c1ccccc1)(c1ccccc1)C1CCCCN1 (centres unmarked) [pipradrol], the “efficacy versus placebo in depression” value [5] is given as “not superior to placebo”.
For Cc1ccc(-c2nc3ccc(C)cn3c2CC(=O)N(C)C)cc1 [zolpidem], the “effect on driving performance, middle-of-the-night administration” value ([2]; dose at 4 am (gaboxadol 15 mg; zolpidem 10 mg), on-the-road driving test at 9 am) was “numerically greater effect”.
In the case of CN1CCN(C(=O)OC2c3nccnc3C(=O)N2c2ccc(Cl)cn2)CC1 (centres unmarked) [zopiclone], the “effect on memory test, body sway, DSST or critical tracking” value [2] is reported as “had effect on several of these tests” and the “effect on driving performance, evening dose” value ([2]; evening dose before bed (gaboxadol 15 mg; zopiclone 7.5 mg), on-the-road driving test at 9 am) is reported as “numerically greater effect”.
